These results are taken from patent publication US20140288010A1, “Compositions and Methods for Increasing Stem Cell Survival” (Georgia Regents Research Institute, Inc., priority 2013, published 2014).

Test [1] has as its system Smad1/5/8-mediated BMP-2 signal transduction. In words: BMP receptor signaling by Western blot ((p)Erk1/2, (p)Smad1/5/8) in BMSCs. In kind it is cell-based, mouse. Particulars: for effect of pretreatment on SDF-1β potentiation of BMP-2 signal transduction: pretreatment 4 h, 600 μM AMD3100 or 50 μM U0126, before 300 ng/ml BMP-2. The source says: FIGS. 17A and 17D are images of autoradiograms of western blots detecting pErk 1/2, Erk1/2, pSmad 1/5/8, Smad 1/5/8, and beta-actin (loading control) of isolated BMSC cells: Tet-Off-SDF-1β with and without Dox, BMP2, AMD3100, U0126, and combinations thereof (FIG. 17A) and Tet-Off-EV controls with and without Dox, BMP2, AMD3100, U0126, and combinations thereof (FIG. 17D). FIGS. 17B-C and 17E-F are bar graphs showing densitometry quantification of immunoreactive bands of FIGS. 17A and 17D as a ratio of pErk 1/2 to Erk1/2 (17B and 17E) and pSmad 1/5/8 to Smad 1/5/8 (17C and 17F).
(§1) BMP receptor signaling was assessed by Western blot. Serum-starved BMSCs were pretreated with 600 μM AMD3100, 50 μM U0126, or vehicle for 4 h prior to stimulation with 300 ng/ml BMP-2 for 30 min. Whole cell lysates were subjected to SDS-PAGE, electroblotted onto PVDF membranes, and probed for (p)Erk1/2 and (p)Smad1/5/8. Transwell migration assays were performed using conditioned media from genetically engineered BMSCs in lower chambers. Serum-starved Jurkat cells or BMSCs at 5.0-8.0×10^5 cells/ml in upper chambers were allowed to migrate across the 8-μm membranes for 4-8 h prior to quantifying total DNA with CyQuant GR dye at 485/535 nm. Apoptosis was induced with 1.0 mM H2O2 for 6 h. Cell death was quantified by trypan blue staining and Western blot analysis of cleaved caspase-3 and PARP. Autophagy was evaluated by Western blot for LC3-II.

For test [2], the system named is 18 month MSCs. In words: Transwell migration of 18 month MSCs. In kind it is cell-based, mouse. Particulars: 6 hours treatment. From the text: The data shown are averages of quadruplicate wells. Bar graph represents RFU of migrated cells normalized to vehicle control group +/−SEM. *p<0.05 verse control group.
(§2) Low passage MSCs from 18 and 24 month old adult male C57BL/6 mice, procured from the GHSU Institute of Regenerative and Reparative Medicine Stem Cell Core (IRRM-SSC) were used. This age range was chosen based on associated changes in bone formation and mass in the comparatively aged mice (Zhang, et al., Journal of Bone and Mineral Research, 23:1118-1128 (2008)).
(§3) Recombinant active SDF-1β (i.e. full length amino acids 1-72; 100 ng/mL; Peprotech), Recombinant Mouse DPPIV/CD26 enzyme (0.01 μg; R&D) cleaved (Cl.) SDF-1β (aa3-72; 100 ng/mL) (Christopherson, et al., Blood, 101:4680-4686 (2003)), and AMD3100 (400 μM; R&D), an antagonist of SDF-1/CXCR4 axis (Liu, et al., Protein & Cell, 2:845-854 (2011)).
The migration efficiency of 18 month MSCs in response to SDF-1β, its cleaved form and AMD3100, as a positive control, was tested using a transwell migration system.

The next test has as its target CXCR4 (Mus musculus, UniProt P70658). Particulars: BM supernatant of 3 or 18 month old mice normalized to 150 pg/ml SDF-1; both age groups. On the procedure:
BM supernatant from 3 or 18 month old mice were normalized by dilution with saline to yield 150 pg/ml of SDF-1 as determined by ELISA. The normalized BM supernatant was added to the lower chamber and the cells (either pretreated with AMD3100 or not) were permitted to migrate for 6 hours.

Test [3] has as its system 18 month MSCs. In words: Osteogenic differentiation of MSCs, Alizarin red staining for calcium deposition. It counts as cell-based, mouse. Particulars: for increase of Alizarin red staining for calcium compared to control cells: osteogenic differentiation of MSCs, terminal stages.
Text: as §2
To determine the influence of modulating SDF-1 signaling in osteogenic differentiation of 18 month MSCs, the calcium deposition at the terminal stages of differentiation was measured. […] However, the SDF-1β stimulated calcium-staining was reduced by ˜8 fold (FIG. 9B) with co-treatment with C1.SDF-10.

In the next test the test system is SDF-1. The test is described as follows: qRTPCR of SDF1β, CXCR4 and LC3B mRNA in MSCs after metformin treatment. In kind it is cell-based, mouse. Particulars: MSCs treated with metformin compared to controls. (In general: Quantitative PCR measures a nucleic acid by following its amplification.)
The test system of the next test is LC3B, p62, pERK. The test is described as follows: Western blot of LC3B, p62 and pERK in aged MSCs (autophagy and MAPK pathway). It counts as cell-based, mouse. The source says: Low passage MSCs from 18 and 24 month old adult male C57BL/6 mice, procured from the GHSU Institute of Regenerative and Reparative Medicine Stem Cell Core (IRRM-SSC) were used.
Redistribution of LC3B from cytosol (18 kDa) to an autophagosome (16 kDa) is an indication of autophagy induction. P62, also known as sequestosome 1/SQSTM1, is a ubiquitously expressed protein, best characterized for selective autophagy, directly interacts with LC3B on the phagophore through the LC3-interacting region and then degraded.
(Immunoblotting shows a protein as a band on a membrane.)

A further test deals with AMPK-α1 and LC3B. The test is described as follows: qRTPCR of AMPK-α1 and LC3B mRNA in MSCs. In kind it is cell-based, mouse. Particulars: 24 month MSCs; 100 ng/ml for 48 hours. On the procedure:
FIG. 7 is bar graph showing the results of an assay measuring the level of AMPK-alpha1 and LC3B mRNA in 24 month MSCs control cells and cells treated with 100 ng/ml of active SDF-1β for 48 hours. *p<0.05 compared to control group.
as §2, §3

Test [4] has as its system CXCR4-expressing Jurkat cells. The test is described as follows: Transwell migration toward conditioned media from genetically engineered BMSCs, Jurkat cells. Particulars: 4-8 h, p<0.01. In kind it is cell-based. As to the method: as §1
For test [5], the system named is BMSCs. In words: Cell viability after H2O2 treatment by trypan blue exclusion staining. In kind it is cell-based, mouse. Particulars: 1.0 mM H2O2 for 6 h; p<0.001. The source says: BMSCs were transduced with retroviral Tet-Off expression vectors. The sequential protocol of retrovirus production, two-step infection, and selection to generate double-stable Tet-Off-SDF-1β BMSCs and Tet-Off-EV control BMSCs has been described previously (Herberg, et al., Tissue Eng Part A, 19:1-13 (2013)). In brief, 293GPG packaging cells (Ory, et al., Proc. Natl. Acad. Sci. USA, 93:11400-11406 (1996)) were transfected at passage 8 with retroviral Tet-Off expression vectors containing the SDF-1β coding sequence, or empty control (cat#632105) (Clontech Laboratories, Mountain View, Calif., USA). […]
The viability of BMSCs in response to H2O2 treatment was analyzed using standard trypan blue exclusion staining Cells were washed with PBS, lifted with trypsin/EDTA, and resuspended with normal growth medium. Following 1:5 dilution, BMSC suspensions were mixed with an equal volume of 0.4% trypan blue staining solution (cat#15250061) (Gibco, Invitrogen), and counted in 5 inner squares using a hemacytometer with cover slip (Hausser Scientific, Horsham, Pa., USA).
BMP receptor signaling was assessed by Western blot. […] Serum-starved Jurkat cells or BMSCs at 5.0-8.0×10^5 cells/ml in upper chambers were allowed to migrate across the 8-μm membranes for 4-8 h prior to quantifying total DNA with CyQuant GR dye at 485/535 nm. […] Autophagy was evaluated by Western blot for LC3-II.

Test [6] concerns BMSCs. The test is described as follows: Transwell migration toward conditioned media from genetically engineered BMSCs, BMSCs. Particulars: 4-8 h, p<0.01. In kind it is cell-based, mouse. As to the method: as §1

CXCR4, sequence (P70658 whole entry): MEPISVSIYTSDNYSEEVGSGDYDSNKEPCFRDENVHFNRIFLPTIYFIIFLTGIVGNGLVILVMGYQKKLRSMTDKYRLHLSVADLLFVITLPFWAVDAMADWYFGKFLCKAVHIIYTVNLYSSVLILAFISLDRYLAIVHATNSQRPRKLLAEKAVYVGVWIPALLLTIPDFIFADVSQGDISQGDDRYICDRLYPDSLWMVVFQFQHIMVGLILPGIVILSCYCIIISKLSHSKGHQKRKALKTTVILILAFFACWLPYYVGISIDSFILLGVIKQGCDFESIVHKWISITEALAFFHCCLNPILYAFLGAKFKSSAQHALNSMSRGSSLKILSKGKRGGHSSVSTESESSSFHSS

Turning to `c1cc(CN2CCCNCCNCCCNCC2)ccc1CN1CCCNCCNCCCNCC1` [AMD3100], the “effect of pretreatment on SDF-1β potentiation of BMP-2 signal transduction” value in test [1] is on record as “abolished”. In addition, in the test on 18 month MSCs [2], the “migration of MSCs in transwell migration system relative to control” value is “suppressed”. The “migration of MSCs toward BM supernatant after pretreatment of the cells” value on CXCR4 is reported as “blocked all migration”.
Take `c1cc(-c2cnn3cc(-c4ccc(OCCN5CCCCC5)cc4)cnc23)ccn1` [Compound C]: the “osteogenic differentiation of MSCs (Alizarin red staining)” value in the test with 18 month MSCs [3] was “significantly reduced”.
For `N#CC(=C(/N)Sc1ccccc1N)/C(C#N)=C(\N)Sc1ccccc1N` [U0126], in test [1], the “effect of pretreatment on SDF-1β potentiation of BMP-2 signal transduction” value is “abolished”.
Regarding `CN(C)C(=N)N=C(N)N` [metformin], the “increase of Alizarin red staining for calcium compared to control cells” value with 18 month MSCs [3] is on record as around 20 fold. Further, the “expression of endogenous SDF-1” value in the test with SDF-1 is “increase expression of endogenous SDF-1”. In addition, the “LC3B and p62 levels on further incubation” value in the test with LC3B, p62, pERK (18 month and 24 month old MSCs, 24 or 48 h of metformin treatment) was “gradual reduction of LC3B and p62”.
Take “SDF-1β: Recombinant active SDF-1β, full length amino acids 1-72 (Peprotech); in Example 9 overexpressed in engineered BMSCs”: in test [1] (SDF-1β overexpressed in genetically engineered BMSCs, 300 ng/ml BMP-2 for 30 min, p<0.05), the “Smad1/5/8-mediated BMP-2 signal transduction via Erk1/2 phosphorylation” value is reported as “significantly potentiated”. Further, in the test with 18 month MSCs [2], the “migration of MSCs in transwell migration system relative to control” value was “strong migrating potential”. For the same molecule, in the test on AMPK-α1 and LC3B, the “AMPK-α1 and LC3B mRNA (qRTPCR)” value is given as “regulated autophagy at transcriptional level”. Also, the “increase of Alizarin red staining for calcium compared to control cells” value in the test with 18 month MSCs [3] is given as around 20 fold. Further, the “migratory response of CXCR4-expressing Jurkat cells” value in test [4] was “significantly promoted”. Also, in the test on BMSCs [5], the “apoptosis-resistance in genetically engineered BMSCs” value is reported as “significant apoptosis-resistance”. Moreover, the “LC3B and p62 levels on further incubation” value in the test on LC3B, p62, pERK (18 month MSCs, 24 or 48 h, 100 ng/mL) was “gradual disappearance of LC3B and p62”. In addition, the “effect on MAPK pathway and autophagy (LC3B distribution)” value with LC3B, p62, pERK (18 month MSCs, six hours of treatment, 100 ng/mL) is “led to MAPK pathway activation and induced autophagy by distributing LC3B”. Also, in the test on BMSCs [6], the “migratory response of BMSCs” value is listed as “significantly promoted”.
